Read-outs that look alike come from different tables or passages of the source.
How the values were obtained:
His-AKT (Full Length) = His-AKT (Full Length) (Homo sapiens (Human), UniProt P31749); assay: AKT enzyme assay; type: biochemical
P70S6K (T412E mutant) = P70S6K (T412E mutant) (Homo sapiens (Human), UniProt P23443, T412E); assay: P70S6K enzyme assay; type: biochemical
Summary of the method: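 Phosphorylated product and substrate peptide separated by microfluidic capillary electrophoresis (Caliper LabChip 3000), product peaks resolving before substrate.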

Sequence of P70S6K (T412E mutant) (P23443 whole entry T412E): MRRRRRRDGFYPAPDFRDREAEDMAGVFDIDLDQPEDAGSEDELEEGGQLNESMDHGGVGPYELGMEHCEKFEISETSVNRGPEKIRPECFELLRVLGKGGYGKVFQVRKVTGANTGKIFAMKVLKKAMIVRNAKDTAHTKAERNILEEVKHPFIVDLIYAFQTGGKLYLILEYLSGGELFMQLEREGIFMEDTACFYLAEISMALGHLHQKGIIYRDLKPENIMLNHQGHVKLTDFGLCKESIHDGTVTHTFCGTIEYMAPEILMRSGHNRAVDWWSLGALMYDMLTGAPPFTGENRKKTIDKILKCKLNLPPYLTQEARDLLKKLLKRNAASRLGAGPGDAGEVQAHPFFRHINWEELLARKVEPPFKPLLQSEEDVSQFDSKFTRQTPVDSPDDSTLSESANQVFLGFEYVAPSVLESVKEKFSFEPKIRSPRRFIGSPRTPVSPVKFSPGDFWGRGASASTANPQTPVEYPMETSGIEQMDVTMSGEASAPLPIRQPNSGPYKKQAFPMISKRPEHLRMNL
Sequence of His-AKT (Full Length) (P31749 whole entry): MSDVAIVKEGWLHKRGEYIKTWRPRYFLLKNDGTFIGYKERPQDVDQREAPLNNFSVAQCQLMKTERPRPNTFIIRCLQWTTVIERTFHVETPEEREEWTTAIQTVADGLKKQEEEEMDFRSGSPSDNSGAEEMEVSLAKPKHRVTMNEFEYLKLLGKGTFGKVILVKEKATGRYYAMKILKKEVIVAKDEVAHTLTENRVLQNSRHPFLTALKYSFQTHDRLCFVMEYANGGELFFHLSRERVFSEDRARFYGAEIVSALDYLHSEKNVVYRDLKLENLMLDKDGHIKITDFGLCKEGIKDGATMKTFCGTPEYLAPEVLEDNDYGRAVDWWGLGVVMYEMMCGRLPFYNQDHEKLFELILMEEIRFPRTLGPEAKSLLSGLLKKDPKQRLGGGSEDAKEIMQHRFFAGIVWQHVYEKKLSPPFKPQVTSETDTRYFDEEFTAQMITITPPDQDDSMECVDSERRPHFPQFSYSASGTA

## CCNCCn1cc(-c2ccc(F)c(C(F)(F)F)c2)nc1C1CCN(c2ncnc(N)c2OC(C)C)CC1 [Compound 174, 6-(4-(1-(2-(ethylamino)ethyl)-4-(4-fluoro-3-(trifluoromethyl)phenyl)-1H-imidazol-2-yl)piperidin-1-yl)-5-isopropoxypyrimidin-4-amine]
His-AKT (Full Length); read-out: IC50 AKT
  IC50: 0.52 nM
P70S6K (T412E mutant); read-out: IC50 p70S6K
  IC50: 0.44 nM

## CCc1c(N)ncnc1N1CCC(c2nc(-c3ccc(F)c(F)c3)cn2CCN2CC3(COC3)C2)CC1 [Compound 198, 6-(4-{4-(3,4-Difluoro-phenyl)-1-[2-(2-oxa-6-aza-spiro[3.3]hept-6-yl)-ethyl]-1H-imidazol-2-yl}-piperidin-1-yl)-5-ethyl-pyrimidin-4-ylamine]
His-AKT (Full Length); read-out: IC50 AKT
  IC50: 255 nM
P70S6K (T412E mutant); read-out: IC50 p70S6K
  IC50: 11 nM

## C=Cc1c(N)ncnc1N1CCC(c2nc(-c3ccc(F)c(C(F)(F)F)c3)cn2CCN(C)C)CC1 [Compound 73, 6-{4-[1-(2-Dimethylamino-ethyl)-4-(4-fluoro-3-trifluoromethyl-phenyl)-1H-imidazol-2-yl]-piperidin-1-yl}-5-vinyl-pyrimidin-4-ylamine]
His-AKT (Full Length); read-out: IC50 AKT
  IC50: 7.9 nM
P70S6K (T412E mutant); read-out: IC50 p70S6K
  IC50: 2.7 nM

## Cc1cc(-c2cn(CCN3CCC3)c(C3CCN(c4ncnc(N)c4C#N)CC3)n2)ccc1F [Compound 122, 4-amino-6-(4-(1-(2-(azetidin-1-yl)ethyl)-4-(4-fluoro-3-methylphenyl)-1H-imidazol-2-yl)piperidin-1-yl)pyrimidine-5-carbonitrile]
His-AKT (Full Length); read-out: IC50 AKT
  IC50: 2 nM
P70S6K (T412E mutant); read-out: IC50 p70S6K
  IC50: 0.7 nM

## CC(C)c1c(N)ncnc1N1CCC(c2nc(-c3ccc(F)c(C(F)(F)F)c3)cn2CCN2CCC2)CC1 [Compound 114, 6-(4-(1-(2-(azetidin-1-yl)ethyl)-4-(4-fluoro-3-(trifluoromethyl)phenyl)-1H-imidazol-2-yl)piperidin-1-yl)-5-isopropylpyrimidin-4-amine]
His-AKT (Full Length); read-out: IC50 AKT
  IC50: 6.6 nM
P70S6K (T412E mutant); read-out: IC50 p70S6K
  IC50: 3.6 nM

## Cc1cc(-c2cn(CC3CNC3)c(C3CCN(c4ncnc(N)c4C(C)C)CC3)n2)ccc1F [Compound 189, 6-(4-(1-(azetidin-3-ylmethyl)-4-(4-fluoro-3-methylphenyl)-1H-imidazol-2-yl)piperidin-1-yl)-5-isopropylpyrimidin-4-amine]
His-AKT (Full Length); read-out: IC50 AKT
  IC50: 4.5 nM
P70S6K (T412E mutant); read-out: IC50 p70S6K
  IC50: 1.1 nM

## N#Cc1c(N)ncnc1N1CCC(c2nc(-c3cccc(Cl)c3)cn2CCN2CCCC2)CC1 [Compound 311]
His-AKT (Full Length); read-out: IC50 AKT
  IC50: 8.4 nM
P70S6K (T412E mutant); read-out: IC50 p70S6K
  IC50: 2.3 nM

## Nc1ncnc(N2CCC(c3nc(-c4ccc(F)c(C(F)(F)F)c4)cn3CCN3CCC3)CC2)c1-c1cnoc1 [Compound 109, 6-(4-(1-(2-(azetidin-1-yl)ethyl)-4-(4-fluoro-3-(trifluoromethyl)phenyl)-1H-imidazol-2-yl)piperidin-1-yl)-5-(isoxazol-4-yl)pyrimidin-4-amine]
His-AKT (Full Length); read-out: IC50 AKT
  IC50: 1.6 nM
P70S6K (T412E mutant); read-out: IC50 p70S6K
  IC50: 0.9 nM

## CCc1c(N)ncnc1N1CCC(c2nc(-c3ccc(F)c(F)c3)cn2CCN2CCCC2)CC1 [Compound 233]
His-AKT (Full Length); read-out: IC50 AKT
  IC50: 8.2 nM
P70S6K (T412E mutant); read-out: IC50 p70S6K
  IC50: 1.1 nM

## Cc1cc(-c2cn(CC3CNC3)c(C3CCN(c4ncnc(N)c4OCC(F)(F)F)CC3)n2)ccc1F [Compound 186, 6-(4-(1-(azetidin-3-ylmethyl)-4-(4-fluoro-3-methylphenyl)-1H-imidazol-2-yl)piperidin-1-yl)-5-(2,2,2-trifluoroethoxy)pyrimidin-4-amine]
His-AKT (Full Length); read-out: IC50 AKT
  IC50: 7.1 nM
P70S6K (T412E mutant); read-out: IC50 p70S6K
  IC50: 2 nM

## Nc1ncnc(N2CCC(c3nc(-c4ccc(F)c(C(F)(F)F)c4)cn3CCN3CCCCC3)CC2)c1Br [Compound 61, 5-Bromo-6-{4-[4-(4-fluoro-3-trifluoromethyl-phenyl)-1-(2-piperidin-1-yl-ethyl)-1H-imidazol-2-yl]-piperidin-1-yl}-pyrimidin-4-ylamine]
His-AKT (Full Length); read-out: IC50 AKT
  IC50: 9 nM
P70S6K (T412E mutant); read-out: IC50 p70S6K
  IC50: 2.8 nM

## CCc1c(N)ncnc1N1CCC(c2nc(-c3ccc(C(F)(F)F)c(F)c3)cn2CCN2CCC(F)CC2)CC1 [Compound 249]
His-AKT (Full Length); read-out: IC50 AKT
  IC50: 86 nM
P70S6K (T412E mutant); read-out: IC50 p70S6K
  IC50: 10 nM

## CN(C)CCN(C)CCn1cc(-c2ccc(F)c(C(F)(F)F)c2)nc1C1CCN(c2ncnc(N)c2C#N)CC1 [Compound 362, 4-Amino-6-{4-[1-{2-[(2-dimethylamino-ethyl)-methyl-amino]-ethyl}-4-(4-fluoro-3-trifluoromethyl-phenyl)-1H-imidazol-2-yl]-piperidin-1-yl}-pyrimidine-5-carbonitrile]
His-AKT (Full Length); read-out: IC50 AKT
  IC50: 76 nM
P70S6K (T412E mutant); read-out: IC50 p70S6K
  IC50: 4.1 nM

## N#Cc1c(N)ncnc1N1CCC(c2nc(-c3ccnc(F)c3)cn2CCN2CCC2)CC1 [Compound 206, 4-Amino-6-{4-[1-(2-azetidin-1-yl-ethyl)-4-(2-fluoro-pyridin-4-yl)-1H-imidazol-2-yl]-piperidin-1-yl}-pyrimidine-5-carbonitrile]
His-AKT (Full Length); read-out: IC50 AKT
  IC50: 13 nM
P70S6K (T412E mutant); read-out: IC50 p70S6K
  IC50: 2.4 nM

## NC(=O)c1c(N)ncnc1N1CCC(c2nc(-c3ccc(F)c(F)c3)cn2CCN2CCCC2)CC1 [Compound 329]
His-AKT (Full Length); read-out: IC50 AKT
  IC50: 120 nM
P70S6K (T412E mutant); read-out: IC50 p70S6K
  IC50: 14 nM

## Nc1ncnc(N2CCC(c3nc(-c4ccc(F)c(C(F)(F)F)c4)cn3CCN3CCC3)CC2)c1Br [Compound 217]
His-AKT (Full Length); read-out: IC50 AKT
  IC50: 2.3 nM
P70S6K (T412E mutant); read-out: IC50 p70S6K
  IC50: 1.5 nM

## CCc1c(N)ncnc1N1CCC(c2nc(-c3cccc(Cl)c3)cn2CCN2CCC2)CC1 [Compound 279]
His-AKT (Full Length); read-out: IC50 AKT
  IC50: 16 nM
P70S6K (T412E mutant); read-out: IC50 p70S6K
  IC50: 2.4 nM

## Nc1ncnc(N2CCC(c3nc(-c4ccc(F)c(C(F)(F)F)c4)cn3CCN3CCC3)CC2)c1[N+](=O)[O-] [Compound 283]
His-AKT (Full Length); read-out: IC50 AKT
  IC50: 2.7 nM
P70S6K (T412E mutant); read-out: IC50 p70S6K
  IC50: 1.4 nM

## Nc1ncnc(N2CCC(c3nc(-c4ccc(F)c(C(F)(F)F)c4)cn3CCN3CCC3)CC2)c1-c1cc[nH]c1 [Compound 110, 6-(4-(1-(2-(azetidin-1-yl)ethyl)-4-(4-fluoro-3-(trifluoromethyl)phenyl)-1H-imidazol-2-yl)piperidin-1-yl)-5-(1H-pyrrol-3-yl)pyrimidin-4-amine]
His-AKT (Full Length); read-out: IC50 AKT
  IC50: 1.9 nM
P70S6K (T412E mutant); read-out: IC50 p70S6K
  IC50: 0.7 nM

## Nc1cc(N2CCC(c3nc(-c4ccc(F)c(C(F)(F)F)c4)cn3CCN3CCCCC3)CC2)ncn1 [Compound 66]
His-AKT (Full Length); read-out: IC50 AKT
  IC50: 410 nM
P70S6K (T412E mutant); read-out: IC50 p70S6K
  IC50: 110 nM

## Cc1cc(-c2cn(CCO)c(C3CCN(c4ncnc(N)c4-c4cn[nH]c4)CC3)n2)ccc1F [Compound 160, 2-(2-(1-(6-amino-5-(1H-pyrazol-4-yl)pyrimidin-4-yl)piperidin-4-yl)-4-(4-fluoro-3-methylphenyl)-1H-imidazol-1-yl)ethanol]
His-AKT (Full Length); read-out: IC50 AKT
  IC50: 670 nM
P70S6K (T412E mutant); read-out: IC50 p70S6K
  IC50: 6.7 nM

## Nc1ncnc(N2CCC(c3nc(-c4ccc(F)c(Cl)c4)cn3CCN3CCCC3)CC2)c1Br [Compound 268]
His-AKT (Full Length); read-out: IC50 AKT
  IC50: 1.8 nM
P70S6K (T412E mutant); read-out: IC50 p70S6K
  IC50: 1.4 nM

## Cn1cc(-c2ccc(F)c(C(F)(F)F)c2)nc1C1CCN(c2ncnc(N)c2C(N)=O)CC1 [Compound 37, 4-Amino-6-{4-[4-(4-fluoro-3-trifluoromethyl-phenyl)-1-methyl-1H-imidazol-2-yl]-piperidin-1-yl}-pyrimidine-5-carboxamide]
His-AKT (Full Length); read-out: IC50 AKT
  IC50: 1600 nM
P70S6K (T412E mutant); read-out: IC50 p70S6K
  IC50: 2.6 nM

## CCc1c(N)ncnc1N1CCC(c2nc(-c3ccc(F)c(C(F)(F)F)c3)cn2CCN2CCC(F)(F)C2)CC1 [Compound 275]
His-AKT (Full Length); read-out: IC50 AKT
  IC50: 430 nM
P70S6K (T412E mutant); read-out: IC50 p70S6K
  IC50: 2.8 nM

## CCc1c(N)ncnc1N1CCC(c2nc(-c3ccc(F)c(C(F)(F)F)c3)cn2CCN2CC(F)C2)CC1 [Compound 92, 5-ethyl-6-(4-(4-(4-fluoro-3-(trifluoromethyl)phenyl)-1-(2-(3-fluoroazetidin-1-yl)ethyl)-1H-imidazol-2-yl)piperidin-1-yl)pyrimidin-4-amine]
His-AKT (Full Length); read-out: IC50 AKT
  IC50: 71 nM
P70S6K (T412E mutant); read-out: IC50 p70S6K
  IC50: 4.2 nM

## Cc1ccc(-c2cn(CCN3CCC3)c(C3CCN(c4ncnc(N)c4C(N)=O)CC3)n2)cc1Cl [Compound 346]
His-AKT (Full Length); read-out: IC50 AKT
  IC50: 220 nM
P70S6K (T412E mutant); read-out: IC50 p70S6K
  IC50: 3.9 nM

## Cc1cc(-c2cn(CCNC3CC3)c(C3CCN(c4ncnc(N)c4-c4cn[nH]c4)CC3)n2)ccc1F [Compound 161, 6-(4-(1-(2-(cyclooropylamino)ethyl)-4-(4-fluoro-3-methylphenyl)-1H-imidazol-2-yl)piperidin-1-yl)-5-(1H-pyrazol-4-yl)pyrimidin-4-amine]
His-AKT (Full Length); read-out: IC50 (AKT enzyme)
  IC50: 150 nM
His-AKT (Full Length); read-out: IC50 AKT
  IC50: 150 nM
P70S6K (T412E mutant); read-out: IC50 (p70S6K enzyme)
  IC50: 12.9 nM
P70S6K (T412E mutant); read-out: IC50 p70S6K
  IC50: 12.9 nM

## CCOc1c(N)ncnc1N1CCC(c2nc(-c3ccc(F)c(C(F)(F)F)c3)cn2CCNC(C)C)CC1 [Compound 398, 5-Ethoxy-6-{4-[4-(4-fluoro-3-trifluoromethyl-phenyl)-1-(2-isopropylamino-ethyl)-1H-imidazol-2-yl]-piperidin-1-yl}-pyrimidin-4-ylamine]
His-AKT (Full Length); read-out: IC50 AKT
  IC50: 1.5 nM
P70S6K (T412E mutant); read-out: IC50 p70S6K
  IC50: 2.1 nM

## CCc1c(N)ncnc1N1CCC(c2nc(-c3ccc(F)c(C(F)(F)F)c3)cn2CCN2CC(F)(F)C2)CC1 [Compound 94, 6-(4-(1-(2-(3,3-difluoroazetidin-1-yl)ethyl)-4-(4-fluoro-3-(trifluoromethyl)phenyl)-1H-imidazol-2-yl)piperidin-1-yl)-5-ethylpyrimidin-4-amine]
His-AKT (Full Length); read-out: IC50 AKT
  IC50: 1600 nM
P70S6K (T412E mutant); read-out: IC50 p70S6K
  IC50: 13 nM

## CCc1c(N)ncnc1N1CCC(c2nc(-c3ccc(C(F)(F)F)c(F)c3)cn2CCN2CC[C@H](F)C2)CC1 [Compound 245]
His-AKT (Full Length); read-out: IC50 AKT
  IC50: 64 nM
P70S6K (T412E mutant); read-out: IC50 p70S6K
  IC50: 5.3 nM

## COc1ccc(-c2cn(CCN3CCC3)c(C3CCN(c4ncnc(N)c4C#N)CC3)n2)cc1F [Compound 321]
His-AKT (Full Length); read-out: IC50 AKT
  IC50: 59 nM
P70S6K (T412E mutant); read-out: IC50 p70S6K
  IC50: 2.6 nM

## Nc1ncnc(N2CCC(c3nc(-c4ccc(Cl)c(F)c4)cn3CCN3CCCC3)CC2)c1Br [Compound 266]
His-AKT (Full Length); read-out: IC50 AKT
  IC50: 16 nM
P70S6K (T412E mutant); read-out: IC50 p70S6K
  IC50: 3.3 nM
